Assay results published in ChEMBL document CHEMBL1134991, “Alpha(1)-adrenoceptor activation: a comparison of 4-(anilinomethyl)imidazoles and 4-(phenoxymethyl)imidazoles to related 2-imidazolines” (Bioorg Med Chem Lett, 2002).

Assays:
[1] = biological target: T1, Alpha-1A adrenergic receptor (Homo sapiens) (UniProt P35348); assay: Activation of human alpha-1A adrenergic receptor expressed in rat-1 fibroblasts; expressed as a percent of the maximal effect of the phenylephrine; type: functional
T1 sequence (whole entry): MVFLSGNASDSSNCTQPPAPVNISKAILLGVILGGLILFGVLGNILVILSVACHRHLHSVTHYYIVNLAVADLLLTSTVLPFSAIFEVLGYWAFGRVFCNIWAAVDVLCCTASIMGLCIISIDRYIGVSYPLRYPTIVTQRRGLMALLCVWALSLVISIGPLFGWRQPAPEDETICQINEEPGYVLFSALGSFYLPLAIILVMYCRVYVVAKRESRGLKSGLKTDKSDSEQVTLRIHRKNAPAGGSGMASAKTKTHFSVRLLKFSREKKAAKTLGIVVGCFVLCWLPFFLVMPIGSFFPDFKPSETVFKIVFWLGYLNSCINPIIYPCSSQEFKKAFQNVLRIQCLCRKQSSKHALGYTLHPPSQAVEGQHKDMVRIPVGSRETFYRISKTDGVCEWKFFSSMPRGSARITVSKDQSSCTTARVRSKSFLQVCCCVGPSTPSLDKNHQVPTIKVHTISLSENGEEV

[2] = biological target: T2, Alpha-1B adrenergic receptor (Homo sapiens) (UniProt P35368); assay: Activation of human alpha-1B-adrenoceptor receptors expressed in rat-1 fibroblasts as percent maximal effect relative to phenylephrine; type: functional
T2 sequence (whole entry): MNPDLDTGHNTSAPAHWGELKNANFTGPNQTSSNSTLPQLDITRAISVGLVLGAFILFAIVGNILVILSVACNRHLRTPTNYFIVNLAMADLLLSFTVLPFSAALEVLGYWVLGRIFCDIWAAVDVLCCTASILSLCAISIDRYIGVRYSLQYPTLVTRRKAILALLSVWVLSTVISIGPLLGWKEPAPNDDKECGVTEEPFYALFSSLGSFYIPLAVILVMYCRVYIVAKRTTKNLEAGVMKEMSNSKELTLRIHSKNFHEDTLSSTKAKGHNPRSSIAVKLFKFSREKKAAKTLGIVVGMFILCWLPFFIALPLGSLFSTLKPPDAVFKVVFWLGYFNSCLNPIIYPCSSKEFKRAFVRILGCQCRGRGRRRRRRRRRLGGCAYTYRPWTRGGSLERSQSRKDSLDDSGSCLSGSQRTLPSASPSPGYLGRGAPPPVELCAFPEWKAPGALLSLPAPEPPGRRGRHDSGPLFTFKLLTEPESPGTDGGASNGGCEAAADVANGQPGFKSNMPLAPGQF

[3] = biological target: T3, Alpha-1D adrenergic receptor (Homo sapiens) (UniProt P25100); assay: Activation of human alpha-1D-adrenoceptor receptor expressed in rat-1 fibroblasts relative to phenylephrine; type: functional
T3 sequence (whole entry): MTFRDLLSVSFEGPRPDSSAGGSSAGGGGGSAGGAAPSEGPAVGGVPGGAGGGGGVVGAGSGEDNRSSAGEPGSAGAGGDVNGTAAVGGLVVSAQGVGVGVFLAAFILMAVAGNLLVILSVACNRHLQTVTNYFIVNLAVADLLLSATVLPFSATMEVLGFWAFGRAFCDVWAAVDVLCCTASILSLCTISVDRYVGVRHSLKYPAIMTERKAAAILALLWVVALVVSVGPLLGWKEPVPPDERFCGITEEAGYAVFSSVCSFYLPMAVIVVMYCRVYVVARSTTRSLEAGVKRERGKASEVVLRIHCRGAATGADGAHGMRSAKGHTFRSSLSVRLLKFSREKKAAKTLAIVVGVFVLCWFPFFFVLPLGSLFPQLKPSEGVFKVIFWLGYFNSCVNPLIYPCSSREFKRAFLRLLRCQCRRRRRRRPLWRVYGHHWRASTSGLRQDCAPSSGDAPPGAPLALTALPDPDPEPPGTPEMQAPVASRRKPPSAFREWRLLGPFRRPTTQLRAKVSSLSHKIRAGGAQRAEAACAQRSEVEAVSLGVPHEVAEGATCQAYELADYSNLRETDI

[4] = biological target: T4, Alpha-1A adrenergic receptor (Homo sapiens, UniProt P35348); assay: Activation of human alpha-1A adrenergic receptor expressed in rat-1 fibroblasts; type: functional
T4 sequence (P35348 whole entry): T1 sequence (whole entry)

[5] = biological target: T5, Alpha-1B adrenergic receptor (Homo sapiens, UniProt P35368); assay: Activation of human alpha-1B adrenergic receptors expressed in rat-1 fibroblasts; type: functional
T5 sequence (P35368 whole entry): T2 sequence (whole entry)

[6] = biological target: T6, Alpha-1D adrenergic receptor (Homo sapiens, UniProt P25100); assay: Activation of human Alpha-1D adrenergic receptors expressed in rat-1 fibroblasts; type: functional
T6 sequence (P25100 whole entry): T3 sequence (whole entry)

[7] = biological target: T4, Alpha-1A adrenergic receptor; assay: In vitro binding affinity against cloned human alpha-1A-adrenoceptor receptors expressed in rat-1 fibroblasts
[8] = biological target: T6, Alpha-1D adrenergic receptor; assay: In vitro binding affinity against cloned human alpha-1D-adrenoceptor receptors expressed in rat-1 fibroblasts
[9] = biological target: T5, Alpha-1B adrenergic receptor; assay: In vitro binding affinity against cloned human alpha-1B-adrenoceptor receptors expressed in rat-1 fibroblasts
[10] = Acid dissociation constant for the compound was determined; type: ADME
[11] = biological target: T7, Adrenergic receptor alpha-1 (Rattus norvegicus, UniProt P15823+P23944+P43140); assay: Inhibition of binding of [3H]-prazosin at alpha1 adrenoceptors isolated from rat brain
T7 sequence (P15823 whole entry): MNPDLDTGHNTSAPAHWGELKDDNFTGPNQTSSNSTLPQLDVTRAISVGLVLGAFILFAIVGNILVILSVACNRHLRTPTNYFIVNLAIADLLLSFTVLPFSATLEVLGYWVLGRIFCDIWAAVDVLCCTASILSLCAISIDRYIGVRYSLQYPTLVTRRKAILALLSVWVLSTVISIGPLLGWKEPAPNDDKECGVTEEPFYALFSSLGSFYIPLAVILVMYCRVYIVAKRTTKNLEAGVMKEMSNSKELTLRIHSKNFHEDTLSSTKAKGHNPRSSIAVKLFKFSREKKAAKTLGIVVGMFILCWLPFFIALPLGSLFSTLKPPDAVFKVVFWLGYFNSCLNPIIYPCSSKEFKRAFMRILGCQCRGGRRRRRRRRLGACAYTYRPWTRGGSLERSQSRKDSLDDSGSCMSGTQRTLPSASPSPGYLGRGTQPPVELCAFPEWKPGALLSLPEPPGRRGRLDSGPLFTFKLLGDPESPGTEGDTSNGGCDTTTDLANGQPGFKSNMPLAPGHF
T7 sequence (P23944 whole entry): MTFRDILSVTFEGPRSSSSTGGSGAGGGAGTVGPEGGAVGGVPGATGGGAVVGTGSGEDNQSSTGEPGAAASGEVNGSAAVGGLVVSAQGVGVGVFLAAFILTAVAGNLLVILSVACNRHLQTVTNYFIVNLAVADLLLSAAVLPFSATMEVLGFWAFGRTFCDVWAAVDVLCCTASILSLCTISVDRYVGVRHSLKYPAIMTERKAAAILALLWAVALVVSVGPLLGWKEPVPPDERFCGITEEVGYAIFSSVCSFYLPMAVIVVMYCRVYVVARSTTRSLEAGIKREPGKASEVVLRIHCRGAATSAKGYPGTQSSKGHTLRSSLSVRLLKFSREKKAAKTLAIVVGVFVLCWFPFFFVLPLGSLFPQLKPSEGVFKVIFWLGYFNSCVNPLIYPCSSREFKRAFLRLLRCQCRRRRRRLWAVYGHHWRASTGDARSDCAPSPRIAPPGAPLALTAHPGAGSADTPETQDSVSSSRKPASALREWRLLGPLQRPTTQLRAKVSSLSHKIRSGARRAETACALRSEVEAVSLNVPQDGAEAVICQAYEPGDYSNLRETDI
T7 sequence (P43140 whole entry): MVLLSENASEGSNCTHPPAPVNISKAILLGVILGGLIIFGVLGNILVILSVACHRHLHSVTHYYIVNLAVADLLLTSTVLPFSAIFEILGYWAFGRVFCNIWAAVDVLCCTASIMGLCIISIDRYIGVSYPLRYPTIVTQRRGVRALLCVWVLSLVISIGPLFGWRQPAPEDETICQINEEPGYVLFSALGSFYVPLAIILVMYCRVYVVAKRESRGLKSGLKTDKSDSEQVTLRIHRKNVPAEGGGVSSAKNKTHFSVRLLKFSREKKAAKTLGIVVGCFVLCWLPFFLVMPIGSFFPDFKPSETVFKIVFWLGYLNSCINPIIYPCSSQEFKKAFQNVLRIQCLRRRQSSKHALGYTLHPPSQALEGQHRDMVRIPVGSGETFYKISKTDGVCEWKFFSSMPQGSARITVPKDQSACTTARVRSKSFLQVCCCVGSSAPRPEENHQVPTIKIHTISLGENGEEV

Max [1] [%]	Max [2] [%]	Max [3] [%]	EC50 [4] [nM]	EC50 [5] [nM]	EC50 [6] [nM]	IC50 [7] [nM]	IC50 [8] [nM]	IC50 [9] [nM]	pKa [10]	IC50 [11] [nM]	Structure (SMILES)
94	78	36									CSc1ccccc1NCc1c[nH]cn1
91			158	> 100000	> 100000						c1ccc(-c2ccno2)c(OCc2c[nH]cn2)c1
105			50.1	> 100000	> 100000						CS(=O)(=O)c1ccccc1NCC1=NCCN1
						282	513	1700			CCCNC(=O)c1ccccc1NCC1=NCCN1
120		51	50.1	> 5010	> 251						c1ccc(-c2cnco2)c(NCc2c[nH]cn2)c1
			> 100000	> 100000	> 100000	> 30200	> 30200	> 30200			CCN(CC)C(=O)c1ccccc1OCC1=NCCN1
97			126	> 100000	> 100000						CS(=O)(=O)c1ccccc1NCc1c[nH]cn1
114			63.1	> 5010	> 5010						CCN(CC)C(=O)c1ccccc1NCc1c[nH]cn1
110		53	6.31	> 5010	31.6						Oc1ccc2cccc(NCC3=NCCN3)c2c1
107			20	> 5010	> 5010						c1ccc(-c2cnco2)c(NCC2=NCCN2)c1
91	81	34	6.31	100	100						c1ccc(-c2ccno2)c(OCC2=NCCN2)c1
			10	25.1	20	170	57.5	891	6.5		CSc1ccccc1NCc1cnc[nH]1
100	89	77	3.98	316	79.4	77.6	871	3020			CCCNC(=O)c1ccccc1NCc1c[nH]cn1
114			12.6	> 5010	> 5010						c1ccc(N2CCCCC2)c(NCC2=NCCN2)c1
			> 100000	> 100000	> 100000	> 30200	> 30200	> 30200			CCN(CC)C(=O)c1ccccc1OCc1c[nH]cn1
96						66.1	550	2400			c1ccc(-c2ccccc2OCC2=NCCN2)cc1
104											c1ccc(-c2ccccc2OCC2=NCCN2)nc1
102			15.8	> 100000	> 100000	302	933	5890			c1ccc(-c2ccccc2OCc2c[nH]cn2)cc1
										263	Clc1cccc(Cl)c1NCc1c[nH]cn1
100			63.1	> 5010	> 5010						Oc1ccc2cccc(NCc3c[nH]cn3)c2c1
95			50.1	> 5010	> 5010						c1ccc(N2CCCCC2)c(NCc2c[nH]cn2)c1
105	105	55	5.01	2	7.94	107	19.5	219	10.3		CSc1ccccc1NCC1=NCCN1
										102	Cc1ccc(C)c(OCc2c[nH]cn2)c1

Structure (SMILES)	Max [1] [%]	Max [2] [%]	Max [3] [%]	EC50 [4] [nM]	EC50 [5] [nM]	EC50 [6] [nM]	IC50 [7] [nM]	IC50 [8] [nM]	IC50 [9] [nM]	pKa [10]	IC50 [11] [nM]
COc1ccc(S(C)(=O)=O)c(NCC2=NCCN2)c1				12.6	> 100000	> 100000					
